# In article PMC7589200, “Identification of Putative Non-Substrate-Based XT-I Inhibitors by Natural Product Library Screening” (Biomolecules, 2020):
# How the values were obtained:
# TGFB1 mRNA expression = TGFB1 mRNA expression in NHDFs by qRT-PCR; assay type: cell-based, human; settings: TGF-β1 5 μg/L, 48 h
# Method: (§1) A former established cell culture model was utilized to investigate the effect of putative XT-I inhibitors on NHDFs. The inhibition studies were carried out with final inhibitor concentrations of 0.5, 1.0, 2.0 or 4.0 μM diluted in fully supplemented DMEM. In brief, unless otherwise stated, NHDFs were cultivated with a low density of 50 cells per mm^2 on a hard tissue culture substrate (100 × 20 mm dish) in fully supplemented DMEM with or without additional TGF-β1 (5 μg/L) for 24 h, promoting their transdifferentiation into proto-myofibroblasts. Thereafter, cells were treated with celastrol or amphotericin B in the presence or absence of TGF-β1 (5 μg/L) for an additional 48 h. Negative controls treated with solvent only were included for every sampling time. The final DMSO content of 0.04% (v/v) was kept constant in all inhibition experiments.
# (§2) The RNA extraction from cell lysates and cDNA synthesis for mRNA and miRNA expression analysis were performed as described previously.
# (§3) Quantitative real-time polymerase chain reaction (qRT-PCR) analysis using a LightCycler 480 Instrument II system (Roche, Basel, Swiss) was performed as previously described. […] The geometric mean of the expression levels of the housekeeping genes SDHA, RPL13A and B2M were calculated for expression normalization. The relative target gene mRNA expressions were determined by the ΔΔCT method considering the PCR efficiency. […]
# SMAD7 mRNA expression = SMAD7 mRNA expression in NHDFs by qRT-PCR; assay type: cell-based, human; settings: TGF-β1 5 μg/L, 48 h
# Method: as §1, with “experiments. […]” for “experiments.”
# as §3
# XYLT2 mRNA expression = XYLT2 mRNA expression in NHDFs by qRT-PCR; assay type: cell-based, human; settings: TGF-β1 (5 μg/L) supplementation, 48 h
# Method: as §1, §2
# (§4) Quantitative real-time polymerase chain reaction (qRT-PCR) analysis using a LightCycler 480 Instrument II system (Roche, Basel, Swiss) was performed as previously described. The qRT-PCR experiments were conducted with three biological and three technical replicates per donor-derived primary cell culture, unless otherwise stated. The intron-spanning primer sequences used are listed in [7] and Table 1. The geometric mean of the expression levels of the housekeeping genes SDHA, RPL13A and B2M were calculated for expression normalization. The relative target gene mRNA expressions were determined by the ΔΔCT method considering the PCR efficiency. All normalized gene expression levels shown were referred to the respective target gene expression of one primary cell culture sample for the relative comparison of multiple biological samples per experiment and figures.
# miRNA-21 = miRNA-21 expression in NHDFs, TaqMan advanced miRNA assay; assay type: cell-based, human; settings: TGF-β1 5 µg/L, 48 h, serum-starved NHDFs
# Method: as §2
# The TaqMan advanced miRNA Assay (Thermo Fisher Scientific; Waltham, Massachusetts, United States) was performed, according to the manufacturer’s instructions, for the miRNA expression analyses. The primer assays miRNA-21 (477975_mir) and miRNA-191 (477952_mir) were used. The expression level of miRNA-21 determined was normalized to internal housekeeping gene expression of miRNA-191 via the ΔΔCT method.
# XYLT1 mRNA expression = XYLT1 mRNA expression in NHDFs by qRT-PCR; assay type: cell-based, human; settings: TGF-β1 5 μg/L, 48 h
# Method: as §1, with “experiments. […]” for “experiments.”
# as §2, §4
# recombinant human XT-I = target: T1, recombinant human XT-I (Homo sapiens, UniProt Q86Y38); assay: NP library inhibitor screening, UPLC/ESI-MS/MS XT-I assay; assay type: biochemical; settings: Table S1; 50 μM inhibitor; relative to negative control containing DMSO; technical duplicates
# T1 sequence (Q86Y38 252-959 limits assumed): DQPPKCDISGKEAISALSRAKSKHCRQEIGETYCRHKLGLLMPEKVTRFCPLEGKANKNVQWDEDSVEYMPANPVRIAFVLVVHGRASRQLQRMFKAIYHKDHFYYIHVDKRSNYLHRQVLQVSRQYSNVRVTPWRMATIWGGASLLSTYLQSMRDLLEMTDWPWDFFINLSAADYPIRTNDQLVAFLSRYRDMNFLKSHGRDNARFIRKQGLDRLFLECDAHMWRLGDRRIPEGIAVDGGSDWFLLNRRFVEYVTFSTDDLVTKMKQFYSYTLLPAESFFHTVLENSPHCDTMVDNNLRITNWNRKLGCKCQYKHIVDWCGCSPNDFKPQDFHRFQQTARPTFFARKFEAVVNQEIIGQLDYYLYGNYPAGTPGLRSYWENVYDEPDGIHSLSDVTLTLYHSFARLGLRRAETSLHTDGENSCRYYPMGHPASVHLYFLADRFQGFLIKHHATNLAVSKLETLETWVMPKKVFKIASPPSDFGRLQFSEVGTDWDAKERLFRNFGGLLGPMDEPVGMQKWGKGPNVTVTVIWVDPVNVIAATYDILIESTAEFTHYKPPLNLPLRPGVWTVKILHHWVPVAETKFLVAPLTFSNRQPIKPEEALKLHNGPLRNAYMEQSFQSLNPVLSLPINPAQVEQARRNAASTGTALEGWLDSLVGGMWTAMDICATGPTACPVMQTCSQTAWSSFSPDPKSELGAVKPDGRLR
remaining activity at 50 µM (recombinant human XT-I),Compound,TGFB1 mRNA expression (autoinduction) relative to control (TGFB1 mRNA expression),SMAD7 mRNA expression relative to control (SMAD7 mRNA expression),XYLT2 mRNA expression level (XYLT2 mRNA expression),miRNA-21 expression relative to untreated (miRNA-21),increase in XYLT1 mRNA expression relative to untreated control (XYLT1 mRNA expression; Figure 5A–D),increase in XYLT1 mRNA expression relative to untreated control (XYLT1 mRNA expression; Figure 5E)
–,"TGF-β1: Recombinant human TGF-β1, pro-fibrotic mediator used to stimulate fibroblasts",1.1 ± 0.08 fold,1.8 ± 0.2 fold,unaffected,2.5 ± 0.2 fold,3.7 ± 0.3 fold,4.6 ± 0.2 fold
104%,"CC(=O)O[C@@]12CO[C@@H]1C[C@H](O)[C@@]1(C)C(=O)[C@H](O)C3=C(C)[C@@H](OC(=O)[C@H](O)[C@@H](NC(=O)OC(C)(C)C)c4ccccc4)C[C@@](O)([C@@H](OC(=O)c4ccccc4)[C@H]21)C3(C)C [Compound 23, Docetaxel]",–,–,–,–,–,–
105%,"CC[C@H]1OC(=O)[C@H](C)[C@@H](O[C@H]2C[C@@](C)(OC)[C@@H](O)[C@H](C)O2)[C@H](C)[C@@H](O[C@@H]2O[C@H](C)C[C@H](N(C)C)[C@H]2O)[C@](C)(O)C[C@@H](C)C(=O)[C@H](C)[C@@H](O)[C@]1(C)O [Compound 6, Erythromycin]",–,–,–,–,–,–
